Data as given in paper PMC6143625, “A high throughput screen for next-generation leads targeting malaria parasite transmission” (Nature Communications, 2018).
Like-named read-outs stand apart in the source and are kept apart here.

Key:
[1] = tested on: P. falciparum stage V female gametocytes (female gamete formation); test: P. falciparum dual gamete formation assay (Pf DGFA), female readout (Pfs25 expression), 48 h carry-over format; format: cell-based, Plasmodium falciparum NF54; settings: Plasmodium falciparum; for inhibition at 2 µM: primary screen, single replicate
[2] = tested on: P. falciparum stage V male gametocytes (male gamete formation); test: P. falciparum dual gamete formation assay (Pf DGFA), male readout (exflagellation), 48 h carry-over format; format: cell-based, Plasmodium falciparum NF54; settings: for IC50 / inhibition at 2 µM: Plasmodium falciparum; for inhibition at 2 µM: primary screen, single replicate
[3] = tested on: P. falciparum 3D7 asexual blood stages; test: Whole-cell time extended asexual growth assay (pLDH); format: cell-based; settings: Plasmodium falciparum; for inhibition at 2 µM: primary screen, read-out: %Inh Asex stages @2uM
Description: Asexual activity was assayed via Plasmodium lactate dehydrogenase activity (pLDH), a surrogate of asexual parasite growth. […] 2 µM artesunate and DMSO were used as the positive and negative controls, respectively. […] After plate mixing, NBT reduction was measured by absorbance at 650 nm using Envision (Perkin Elmer).

[4] = tested on: P. falciparum male gamete formation; test: Pf DGFA add-in format, male readout; format: cell-based, Plasmodium falciparum; settings: Plasmodium falciparum; 0h preincubation/add-in
Description: In profiling mode, the Pf DGFA was performed in 96-well plates[23] in wash-out and add-in formats to aid manual manipulation steps. In the wash-out format, gametocytes were incubated for 24 h with test compounds in round-bottomed 96 well plates and then culture medium replaced three times over 6 h, to remove as much of the compound as possible from the well. […] In add-in format, gametocytes were added directly to flat-bottomed 96-well plates containing test compounds, ookinete medium and anti-Pfs25.

[5] = BPCA vs GHCDL stock of DDD599, adjusted for correct molecular weight, read-out: Pf DGFA female IC50
[6] = BPCA vs GHCDL stock of DDD599, adjusted for correct molecular weight, read-out: Pf DGFA male IC50
[7] = SAR, Fig. 6 and Fig. 7, read-out: Male IC50
[8] = profiling / reconfirmation, read-out: Pf asexual IC50
[9] = 24h preincubation/carry-over, read-out: Pf DGFA Female IC50
[10] = 72h incubation, read-out: Pf Asexual IC50
[11] = dose response retest, 72 h, read-out: IC50 (µM) Asex stages
[12] = 48 h, dose response retest of primary hits, 48 h incubation, read-out: Female IC50
[13] = 48h preincubation/carry-over, read-out: Pf DGFA Female IC50
[14] = SAR, Fig. 7, read-out: Female IC50
[15] = 48 h, dose response retest of primary hits, 48 h incubation, read-out: Male IC50
[16] = 48h preincubation/carry-over, read-out: Pf DGFA Male IC50

Row | Compound | IC50 [2, 7] [µM] | IC50 [1, 9] [µM] | IC50 [3, 10] [µM] | IC50 [3, 11] [µM] | inhibition at 2 µM ([3]; 72 h) [%] | IC50 [4] [µM] | IC50 [1, 12] [µM] | IC50 [1, 13] [µM] | IC50 [1, 14] [µM] | inhibition at 2 µM ([1]; 48 h incubation) [%] | IC50 [2, 15] [µM] | IC50 [2, 16] [µM] | inhibition at 2 µM ([2]; 48 h incubation) [%] | other results
1 | O=C(CCl)Nc1ccc(Br)cc1 [BPCA, N-(4-bromophenyl)-2-chloroacetamide] | 1.42 | – | – | – | – | – | – | – | – | – | – | – | – | IC50 [1, 5]: 11 µM; IC50 [2, 6]: 1.46 µM; Selectivity ([2]; parasite selectivity compared to Tox50 in HepG2 cells): 17; IC50 [3, 8]: 0.8 µM
2 | CC(=O)c1c(C)nn(CC(=O)Nc2ccc(Br)cc2)c1C [DDD01027599] | – | > 12.5 | 0.64 | 1.02 | 80.5 | > 10 | – | – | – | – | – | – | – | IC50 [1, 5]: 3.43 µM; IC50 ([1]; compound resynthesised at GSK, read-out: IC50 against female gametocytes): > 50 µM; IC50 [2, 6]: 1.38 µM; IC50 ([2]; compound resynthesised at GSK, read-out: IC50 against male gametocytes): > 50 µM; activity in the Pf DGFA ([2]; freshly resynthesized compound): inactive; IC50 ([3]; compound resynthesised at GSK, read-out: IC50 against asexuals): > 50 µM; IC50 [3, 8]: 0.8 µM
3 | O=S(=O)(NCC1(O)CCOc2ccccc21)c1ccccc1F (centres unmarked) [DDD01028073] | 0.34 | > 12.5 | > 20 | – | – | 0.34 | > 10 | > 12.5 | > 12.5 | < 30 | 0.29 | 0.24 | 95 | –
4 | Cc1ccc(S(=O)(=O)NCC2(O)CCOc3ccccc32)s1 (centres unmarked) [DDD01028074] | 0.61 | > 12.5 | > 20 | – | – | 0.61 | > 10 | > 12.5 | > 12.5 | < 30 | 0.22 | 0.49 | 101 | –
5 | O=S(=O)(NCC1(O)CCOc2ccccc21)c1ccc(Cl)s1 (centres unmarked) [DDD01028075] | 0.24 | > 12.5 | > 20 | – | – | 0.24 | > 10 | > 12.5 | > 12.5 | < 30 | 0.45 | 1.48 | 53.1 | –
6 | O=S(=O)(NCC1(O)CCOc2ccccc21)c1ccccc1Br (centres unmarked) [DDD01028076] | 0.53 | > 12.5 | > 20 | – | – | 0.53 | > 10 | > 12.5 | > 12.5 | < 30 | 0.16 | 0.72 | 98.3 | –
7 | COc1cccc(-n2ccc3nc(N4CCCC4)ncc3c2=O)c1 [DDD01034957] | – | > 12.5 | 0.17 | 0.72 | 58.1 | > 10 | – | > 12.5 | – | – | – | > 12.5 | – | –
8 | O=S(=O)(NCC1(O)CCOc2ccccc21)c1cccs1 (centres unmarked) [DDD01035879] | 0.28 | > 12.5 | > 20 | – | – | 0.28 | > 10 | > 12.5 | > 12.5 | < 30 | 1.1 | 1.65 | 83.8 | –
9 | O=S(=O)(NCC1(O)CCOc2ccccc21)c1ccc(Br)s1 (centres unmarked) [DDD01035881] | 0.19 | > 12.5 | 17.5 | – | – | 0.19 | > 10 | > 12.5 | > 12.5 | < 30 | 0.54 | 0.7 | 102 | –
10 | Cc1cccc(NC(=O)c2cccc(OCc3nnnn3C)c2)n1 [DDD01038630] | – | > 12.5 | 1.13 | 0.963 | 84.5 | > 10 | – | > 12.5 | – | – | – | > 12.5 | – | –
11 | CC(c1ccco1)N(C(=O)CNc1ccc(C#N)cc1)C1CC1 (centres unmarked) [DDD01062645] | – | > 12.5 | > 20 | – | – | 0.44 | > 10 | > 12.5 | – | < 30 | 0.43 | 2.07 | 96 | –
12 | Cc1ccc(CN(c2cc(C)nc3nc(C(F)(F)F)nn23)C2CC2)cc1 [DDD01063654] | – | > 12.5 | 0.33 | 0.324 | 73.2 | > 10 | – | > 12.5 | – | – | – | > 12.5 | – | –
13 | Cc1cc(C)c(CNCC(O)c2ccc(F)c(F)c2)c(C)c1.Cl (centres unmarked) [DDD01065539] | – | > 12.5 | 0.17 | 0.396 | 91.4 | > 10 | – | > 12.5 | – | – | – | > 12.5 | – | –
14 | CC(NCC1CCN(CCO)CC1)c1ccc(OC(F)(F)F)cc1 (centres unmarked) [DDD01073716] | – | > 12.5 | 10.8 | – | – | > 10 | > 10 | 4.12 | – | < 30 | 7.09 | 1.43 | 43.9 | –
15 | CN(Cc1cccc(F)c1)C(=O)CS(=O)(=O)Cc1c(Cl)cccc1Cl [DDD01077188] | – | > 12.5 | 0.63 | 0.764 | 74.2 | > 10 | – | > 12.5 | – | – | – | > 12.5 | – | –
16 | CN1CCC(NCC(O)c2cccc(OCc3ccccc3)c2)CC1 (centres unmarked) [DDD01079164] | – | > 12.5 | 7.53 | – | – | > 10 | > 10 | 3.12 | – | < 30 | 5.75 | 0.92 | 45.7 | –
17 | CNc1cc(C)nc(NC2CCCN(C3Cc4ccccc4C3)C2)n1 (centres unmarked) [DDD01243506] | – | > 12.5 | – | 1.07 | 97.1 | > 10 | – | > 12.5 | – | – | – | > 12.5 | – | IC50 [3, 8]: 0.66 µM
18 | OC1(CN2CCC(Oc3cccc(C(F)(F)F)c3)CC2)CCNC1 (centres unmarked) [DDD01245291] | – | > 25 | 6.66 | – | – | > 10 | 5.78 | 4.13 | – | < 30 | 3.05 | 1.11 | 48.3 | –
19 | CC(c1cccs1)N(C)Cc1cnc(-c2ccccn2)nc1 (centres unmarked) [DDD01246628] | – | > 25 | 4.75 | – | – | > 10 | 5.32 | > 25 | – | 41.9 | 2.54 | 1.17 | 67.8 | –
